Measured values: patent publication US20170157228A1, “Immunogenic Polypeptide Composed of HLA-B7 Restricted Tumor Antigen-Derived Optimized Cryptic Peptides, and Uses Thereof” (VAXON BIOTECH, priority 2014, published 2017)
Entries after “also recorded” stand apart in the source; their conditions may differ.

Legend:
[1] = system: MAGE-A antigens / tumour cells; conditions: recognition of cells loaded with MAGE-A273A6, MAGE-A273I6, MAGE-A273V6; cited from earlier work
[2] = system: HLA-B*0702 transgenic mice; assay: CTL induction in vivo in HLA-B*0702 transgenic mice, ex vivo IFNγ ELISpot of spleen T cells; conditions: for result versus the inverted dipeptide sequence, in terms of number of responding mice: dipeptide vaccination twice at 2 weeks interval, response against optimized and cognate native peptides; for mice responding to at least one native peptide / recognition of each native peptide in vaccinated mice: after two vaccinations with the polypeptide
Procedure: Transgenic Mice. The HLA-B7 H-2 class-I knockout mice were previously described (Rohrlich et al, 2003) and kindly provided by F. Lemonnier (Institut Pasteur, Paris, France).
CTL Induction in vivo in HLA-B*0702 Transgenic Mice. HLA-B*0702 transgenic mice were vaccinated subcutaneously at the base of the tail with 200 μg of optimized dipeptides or 400 μg of Vbx-016 in association with the HV core T13L helper (150 μg) helper peptide and emulsified in Incomplete Freund Adjuvant (IFA) or Montanide ISA51VG (Seppic, Castres, France) twice at two weeks interval.
Seven days after the last vaccination, spleens were removed and T cells were isolated by Ficoll centrifugation and tested ex vivo for the recognition of 10 μM of either the native or optimized peptides. Positive control was Concanavalin A and negative control was medium alone. All conditions were tested in quadriplicates. IFNγ producing T cells was quantified by ELISpot using the Diaclone Kit Murine IFNγ ELISpot.
An immune response was considered positive when there was 1) more than 10 spots difference/10^6 cells between the negative control and the tested peptide and 2) a statistically significant difference between these two groups with T Test (p<0.05).
Each dipeptide was used to vaccinate HLA-B*0702 transgenic mice twice at 2 weeks interval and tested for its capacity to induce an immune response against both optimized peptides and their cognate native counterparts. Dipeptides are described in table 2. In each experiment, the best combination is highlighted in grey.
To evaluate if the Vbx-016 (SEQ ID No: 23) determined in the dipeptidic experiments is optimum, HLA-B*0702 transgenic mice were vaccinated subcutaneously at the base of the tail with 400 μg of Vbx-016 and 150 μg of the HBV core T13L helper peptide emulsified in Incomplete Freund Adjuvant (IFA) or Montanide ISA51VG (Seppic, Castres, France) twice at two weeks interval.

[3] = system: human PBMC from healthy HLA-B*0702 donors; assay: Generation of CTL from human PBMC, IFNγ ELISpot with peptide-loaded T2-B7 cells; type: cell-based; conditions: for CTL immune response induced by the polypeptide: PBMC culture from HLA-B*0702 healthy donor; for processing of the dipeptide and recognition of optimized and cognate native peptides by induced CTLs: PBMC culture from healthy human donor stimulated with dipeptide
Procedure: Cells. HLA-B*0702 transfected human T2-B7 cells were previously described (Rohrlich et al, 2003). Cells were grown in penicillin streptomycin FCS 20% supplemented RPMI1640 culture medium.
Generation of CTL from human PBMC. PBMC were collected by leukapheresis from healthy HLA-B*0702 volunteers. Dendritic cells (DC) were produced from adherent cells cultured for seven days with 500 IU/ml GM-CSF and 500 IU/ml IL-4, in complete synthetic medium (AIMV). On day 6, DCs were pulsed with 10 μM of polypeptides overnight. On day 7, CD8+ cells were purified by negative selection with CD8 Dynabeads Untouched Human CD8. CD8+ cells (2×10^5)+CD8− cells (6×10^4) were stimulated with 3×10^4 peptide-pulsed DC in AIMV medium supplemented with 1000 IU/ml IL-6 and 5 IU/ml IL-12, 1 μg/ml anti-CD40 and 500 IU/ml IFNγ in round-bottomed 96-well plates.
From day 7, cultures were restimulated weekly with peptide-loaded DC in the presence of 20 IU/ml IL-2 and 10 ng/ml IL-7, 1 μg/ml anti-CD40 and 500 IU/ml IFNγ.
After the third restimulation, CD8 cells were maintained in AIMV supplemented with 20 IU/ml IL-2 during 7 days. Cultures were starved during one night with AIMV and then were tested in an IFNγ ELISpot assay.
IFNγ ELISpot Assay. For one culture of 96 wells, four pools of 24 wells were collected, CD8 cells were counted and 50 000 CD8 per well were dispatched on the ELISpot plate with 25 000 T2B7 loaded eiher with 10 μM of each native monopeptide or with 10 μM of modified monopeptides composing the polypeptide. Eight replicates of each condition were performed. Positive control was Phytohaemagglutinin A and negative control was T2B7 loaded with an irrelevant peptide not able to bind HLA-B7 molecules.
To evaluate if the junction present in the polypeptide CEA188L9/TERT444A1/MAGE273L9/HER-2/neu246A1 validated in transgenic mice are processed efficiently in humans, human PBMC were stimulated with each dipeptide (CEA188L9/TERT444A1, TERT444A1/MAGE273L9 and MAGE273L9/HER-2/neu246A1) according to the protocol described in the methods. Recognition of the cognate native peptides was evaluated by measuring specific IFNγ producing cells from the CD8+ stimulated by the dipeptide, divided in 4 pools for the test.

GPRALVETL (7M1M)
MAGE-A antigens targeted by elicited CTLs [1]: targeted six MAGE-A antigens (-A1, -A2, -A3, -A4, -A6, and -A12)

SPRLQLSNLGPRALVETL (7C1M1M)
result versus the inverted dipeptide sequence, in terms of number of responding mice [2]: the same results

SPRLQLSNLAPKHSDCLA (7C1HN3M)
result versus the inverted dipeptide sequence, in terms of number of responding mice [2]: better results than the corresponding inverted sequences; also recorded: better results than the inverted sequence

APRRLVQLLAPKHSDCLA (7T5HN3M)
result versus the inverted dipeptide sequence, in terms of number of responding mice [2]: better results than the corresponding inverted sequences; also recorded: better results than the inverted sequence

SPRLQLSNLAPRRLVQLLGPRALVETLAPKHSDCLA [Vbx-016, polypeptide of four optimized cryptic peptides targeting TERT, HER-2/neu, MAGE and CEA for HLA-B7 patients]
mice responding to at least one native peptide [2]: all mice respond to at least one native peptide | recognition of each native peptide in vaccinated mice [2]: each native peptide was recognized at least once in one vaccinated mouse | mice responding to at least one native peptide ([2]; listed as SEQ ID No: 23): all mice responded to at least one native peptide | recognition of each native peptide in vaccinated mice ([2]; listed as SEQ ID No: 23): all the native peptides were recognized at least once in one vaccinated mouse | Number of responding mice/total number of mice ([2]; recognition of CEA188, Helper + adjuvant (IFA or montanide), pooled): 13/14 | Number of responding mice/total number of mice ([2]; recognition of CEA188, Vbx016 + helper + IFA, two vaccinations, T-test <0.05): 8/9 | Number of responding mice/total number of mice ([2]; recognition of CEA188, Vbx016 + helper + Montanide, two vaccinations, T-test <0.05): 5/5 | Number of responding mice/total number of mice ([2]; recognition of CEA188L9, Helper + adjuvant (IFA or montanide), pooled): 13/14 | Number of responding mice/total number of mice ([2]; recognition of CEA188L9, Vbx016 + helper + IFA): 8/9 | Number of responding mice/total number of mice ([2]; recognition of CEA188L9, Vbx016 + helper + Montanide): 5/5 | Number of responding mice/total number of mice ([2]; recognition of HER-2Neu246, Helper + adjuvant (IFA or montanide), pooled): 1/14 | Number of responding mice/total number of mice ([2]; recognition of HER-2Neu246, Vbx016 + helper + IFA): 1/9 | Number of responding mice/total number of mice ([2]; recognition of HER-2Neu246, Vbx016 + helper + Montanide): 0/5 | Number of responding mice/total number of mice ([2]; recognition of HER-2Neu246A1, Helper + adjuvant (IFA or montanide), pooled): 2/14 | Number of responding mice/total number of mice ([2]; recognition of HER-2Neu246A1, Vbx016 + helper + IFA): 2/9 | Number of responding mice/total number of mice ([2]; recognition of HER-2Neu246A1, Vbx016 + helper + Montanide): 0/5 | Number of responding mice/total number of mice ([2]; recognition of MageA273A6, Helper + adjuvant (IFA or montanide), pooled): 2/14 | Number of responding mice/total number of mice ([2]; recognition of MageA273A6, Vbx016 + helper + IFA): 2/9 | Number of responding mice/total number of mice ([2]; recognition of MageA273A6, Vbx016 + helper + Montanide): 0/5 | Number of responding mice/total number of mice ([2]; recognition of MageA273I6, Helper + adjuvant (IFA or montanide), pooled): 3/14 | Number of responding mice/total number of mice ([2]; recognition of MageA273I6, Vbx016 + helper + IFA): 1/9 | Number of responding mice/total number of mice ([2]; recognition of MageA273I6, Vbx016 + helper + Montanide): 2/5 | Number of responding mice/total number of mice ([2]; recognition of MageA273L9, Helper + adjuvant (IFA or montanide), pooled): 12/14 | Number of responding mice/total number of mice ([2]; recognition of MageA273L9, Vbx016 + helper + IFA): 7/9 | Number of responding mice/total number of mice ([2]; recognition of MageA273L9, Vbx016 + helper + Montanide): 5/5 | Number of responding mice/total number of mice ([2]; recognition of MageA273V6, Helper + adjuvant (IFA or montanide), pooled): 2/14 | Number of responding mice/total number of mice ([2]; recognition of MageA273V6, Vbx016 + helper + IFA): 1/9 | Number of responding mice/total number of mice ([2]; recognition of MageA273V6, Vbx016 + helper + Montanide): 1/5 | Number of responding mice/total number of mice ([2]; recognition of Tert444, Helper + adjuvant (IFA or montanide), pooled): 12/14 | Number of responding mice/total number of mice ([2]; recognition of Tert444, Vbx016 + helper + IFA): 8/9 | Number of responding mice/total number of mice ([2]; recognition of Tert444, Vbx016 + helper + Montanide): 4/5 | Number of responding mice/total number of mice ([2]; recognition of Tert444A1, Helper + adjuvant (IFA or montanide), pooled): 14/14 | Number of responding mice/total number of mice ([2]; recognition of Tert444A1, Vbx016 + helper + IFA): 9/9 | Number of responding mice/total number of mice ([2]; recognition of Tert444A1, Vbx016 + helper + Montanide): 5/5 | Number of responding mice/total number of mice ([2]; recognition of Vbx-016, Helper + adjuvant (IFA or montanide), pooled): 14/14 | Number of responding mice/total number of mice ([2]; recognition of Vbx-016, Vbx016 + helper + IFA): 9/9 | Number of responding mice/total number of mice ([2]; recognition of Vbx-016, Vbx016 + helper + Montanide): 4/4 | Number of responding mice/total number of mice ([2]; response to two or more native epitopes, Helper + adjuvant (IFA or montanide), pooled, listed as SEQ ID No: 23): a large majority of vaccinated mice responded to two or more cognate native peptides | Number of responding mice/total number of mice ([2]; response to two or more native epitopes, Vbx016 + helper + IFA): 8/9 | Number of responding mice/total number of mice ([2]; response to two or more native epitopes, Vbx016 + helper + Montanide): 5/5 | Number of responding mice/total number of mice ([2]; response to two or more native epitopes, column Helper + adjuvant (IFA or montanide), pooled): 13/14 | Number of responding mice/total number of mice ([2]; response to two or more native epitopes, column Helper + adjuvant (IFA or montanide), pooled, listed as Vbx016): 13/14 | CTL immune response induced by the polypeptide [3]: A polyspecific response was induced and several native peptides were recognized by the induced CTLs | CTL immune response induced by the polypeptide ([3]; listed as SEQ ID No: 23): polyspecific CTLs immune response; also recorded: several native peptides were recognized; also recorded: induces a specific CD8^+ T cells response against at least one and usually two or more peptides

GPRALVETLSPRLQLSNL (7M1C1M)
result versus the inverted dipeptide sequence, in terms of number of responding mice [2]: the same results

SPRLQLSNLAPRRLVQLL (7C1T5M)
result versus the inverted dipeptide sequence, in terms of number of responding mice [2]: better results than the corresponding inverted sequences; also recorded: better results than the inverted sequence | processing of the dipeptide and recognition of optimized and cognate native peptides by induced CTLs [3]: efficiently processed in vitro in humans

GPRALVETLAPKHSDCLA (7M1HN3M)
result versus the inverted dipeptide sequence, in terms of number of responding mice [2]: better results than the corresponding inverted sequences; also recorded: better results than the inverted sequence | processing of the dipeptide and recognition of optimized and cognate native peptides by induced CTLs [3]: efficiently processed in vitro in humans

APRRLVQLLGPRALVETL (7T5M1M)
result versus the inverted dipeptide sequence, in terms of number of responding mice [2]: better results than the corresponding inverted sequences; also recorded: better results than the inverted sequence | processing of the dipeptide and recognition of optimized and cognate native peptides by induced CTLs [3]: efficiently processed in vitro in humans
